The results in this text go back to PMC5218480 (PLoS ONE, 2017).

In this assay the test system is MV-4-11 cells. Kind of assay: Gene expression microarray analysis (Affymetrix PrimeView) and GSEA. The conditions noted are these: ProbeSet 11743510_at; LIST D. The assay is classed as cell-based, human. Also on record: RFU PODN (11730768_x_at) / Fold change /veh PODN (11730768_x_at) / RFU LINC00158 (11744669_a_at) / Fold change /veh LINC00158 (11744669_a_at) / RFU DUSP10 (11751237_a_at) / Fold change /veh DUSP10 (11751237_a_at) / RFU ID3 (11757404_x_at) / Fold change /veh ID3 (11757404_x_at) / RFU PLEKHG5 (11737974_s_at) / Fold change /veh PLEKHG5 (11737974_s_at) / RFU LRRC4B (11730491_at) / Fold change /veh LRRC4B (11730491_at) / RFU GIMAP4 (11747438_a_at) / Fold change /veh GIMAP4 (11747438_a_at) / RFU KRT8 (11758183_x_at) / Fold change /veh KRT8 (11758183_x_at) / RFU CNN1 (11734310_a_at) / Fold change /veh CNN1 (11734310_a_at) / RFU VPS37D (11726825_at) / Fold change /veh VPS37D (11726825_at) / RFU C10orf10 (11716522_x_at) / Fold change /veh C10orf10 (11716522_x_at) / RFU KIR2DL2 /// KIR2DL4 /// KIR2DL5A /// KIR2DL5B /// KIR2DS1 /// KIR2DS2 /// KIR2DS3 /// KIR2DS4 /// KIR3DL3 /// KIR3DL3 /// KIR3DS1 (11738374_at) / Fold change /veh KIR2DL2 /// KIR2DL4 /// KIR2DL5A /// KIR2DL5B /// KIR2DS1 /// KIR2DS2 /// KIR2DS3 /// KIR2DS4 /// KIR3DL3 /// KIR3DL3 /// KIR3DS1 (11738374_at) / RFU C1QL1 (11718748_at) / Fold change /veh C1QL1 (11718748_at) / RFU TMPRSS4 (11747572_a_at) / Fold change /veh TMPRSS4 (11747572_a_at) / RFU HAMP (11756126_x_at) / Fold change /veh HAMP (11756126_x_at) / RFU RNFT2 (11725882_a_at) / Fold change /veh RNFT2 (11725882_a_at) / RFU NR4A2 (11747474_a_at) / Fold change /veh NR4A2 (11747474_a_at) / RFU ABCC12 (11746883_a_at) / Fold change /veh ABCC12 (11746883_a_at) / RFU TMEM136 (11760407_x_at) / Fold change /veh TMEM136 (11760407_x_at) / RFU CLDN22 /// WWC2 (11732394_at) / Fold change /veh CLDN22 /// WWC2 (11732394_at) / RFU HLA-DPB1 (11760878_x_at) / Fold change /veh HLA-DPB1 (11760878_x_at) / RFU SPINT1 (11716480_a_at) / Fold change /veh SPINT1 (11716480_a_at) / RFU GAP43 (11754022_s_at) / Fold change /veh GAP43 (11754022_s_at) / RFU A4GNT (11735810_at) / Fold change /veh A4GNT (11735810_at) / RFU PRB3 (11715151_x_at) / Fold change /veh PRB3 (11715151_x_at) / RFU TUBB4B (11761932_at) / Fold change /veh TUBB4B (11761932_at) / RFU CAPN14 (11732068_a_at) / Fold change /veh CAPN14 (11732068_a_at) / RFU TMCC2 (11721928_a_at) / Fold change /veh TMCC2 (11721928_a_at) / RFU IRGQ (11745062_a_at) / Fold change /veh IRGQ (11745062_a_at) / RFU FAM174B (11720279_a_at) / Fold change /veh FAM174B (11720279_a_at) / RFU TMPRSS4 (11748680_a_at) / Fold change /veh TMPRSS4 (11748680_a_at) / RFU FAM212B (11763350_a_at) / Fold change /veh FAM212B (11763350_a_at) / RFU PLEKHG5 (11743358_a_at) / Fold change /veh PLEKHG5 (11743358_a_at) / RFU ZSCAN30 (11745921_a_at) / Fold change /veh ZSCAN30 (11745921_a_at) / RFU CMKLR1 (11741424_a_at) / Fold change /veh CMKLR1 (11741424_a_at) / RFU LOC101060620 /// MAPK8IP1 (11723275_at) / Fold change /veh LOC101060620 /// MAPK8IP1 (11723275_at) / RFU SPTSSB (11747773_x_at) / Fold change /veh SPTSSB (11747773_x_at) / RFU PRSS12 (11739890_at) / Fold change /veh PRSS12 (11739890_at) / RFU BIN1 (11741810_x_at) / Fold change /veh BIN1 (11741810_x_at) / RFU WNT11 (11732464_a_at) / Fold change /veh WNT11 (11732464_a_at) / RFU C10orf10 (11716521_a_at) / Fold change /veh C10orf10 (11716521_a_at) / RFU C5orf56 (11738089_at) / Fold change /veh C5orf56 (11738089_at) / RFU CYB561 (11721691_x_at) / Fold change /veh CYB561 (11721691_x_at) / RFU ANKRD19P (11752326_a_at) / Fold change /veh ANKRD19P (11752326_a_at) / RFU OR2T12 /// OR2T33 /// OR2T8 (11738714_s_at) / Fold change /veh OR2T12 /// OR2T33 /// OR2T8 (11738714_s_at) / RFU VCAN (11748164_a_at) / Fold change /veh VCAN (11748164_a_at) / RFU JSRP1 (11732532_at) / Fold change /veh JSRP1 (11732532_at) / RFU KRTAP10-11 (11738290_x_at) / Fold change /veh KRTAP10-11 (11738290_x_at) / RFU MYO3A (11730013_a_at) / Fold change /veh MYO3A (11730013_a_at) / RFU EBF3 (11725865_a_at) / Fold change /veh EBF3 (11725865_a_at) / RFU CAMK2N1 (11719241_x_at) / Fold change /veh CAMK2N1 (11719241_x_at) / RFU C5orf56 (11738088_a_at) / Fold change /veh C5orf56 (11738088_a_at) / RFU OLFML3 (11715873_a_at) / Fold change /veh OLFML3 (11715873_a_at) / RFU LOC100653217 /// NTM (11731650_a_at) / Fold change /veh LOC100653217 /// NTM (11731650_a_at) / RFU MAPK11 (11762145_a_at) / Fold change /veh MAPK11 (11762145_a_at) / RFU FIZ1 (11724087_x_at) / Fold change /veh FIZ1 (11724087_x_at) / RFU OASL (11726364_x_at) / Fold change /veh OASL (11726364_x_at) / RFU SOX15 (11748057_x_at) / Fold change /veh SOX15 (11748057_x_at) / RFU CD79A (11719716_a_at) / Fold change /veh CD79A (11719716_a_at) / RFU HIST1H1D (11736915_at) / Fold change /veh HIST1H1D (11736915_at) / RFU CASKIN2 (11723855_a_at) / Fold change /veh CASKIN2 (11723855_a_at) / RFU LOC730098 (11760151_x_at) / Fold change /veh LOC730098 (11760151_x_at) / RFU OR4N2 (11742367_at) / Fold change /veh OR4N2 (11742367_at) / RFU PRRT2 (11749266_a_at) / Fold change /veh PRRT2 (11749266_a_at) / RFU SNX32 (11753110_a_at) / Fold change /veh SNX32 (11753110_a_at) / RFU CDHR5 (11726645_a_at) / Fold change /veh CDHR5 (11726645_a_at) / RFU RCAN1 (11760418_a_at) / Fold change /veh RCAN1 (11760418_a_at) / RFU FAM167A (11723789_a_at) / Fold change /veh FAM167A (11723789_a_at) / RFU FAM26E (11764081_at) / Fold change /veh FAM26E (11764081_at) / RFU ISYNA1 (11749810_s_at) / Fold change /veh ISYNA1 (11749810_s_at) / RFU ACY1 (11761880_at) / Fold change /veh ACY1 (11761880_at) / RFU 11764098_at / Fold change /veh 11764098_at / RFU SAMD14 (11745864_x_at) / Fold change /veh SAMD14 (11745864_x_at) / RFU NPB (11741838_a_at) / Fold change /veh NPB (11741838_a_at) / RFU TMPRSS6 (11731388_a_at) / Fold change /veh TMPRSS6 (11731388_a_at) / RFU KRTAP10-2 (11738614_at) / Fold change /veh KRTAP10-2 (11738614_at) / RFU ARHGAP8 /// PRR5-ARHGAP8 (11727945_x_at) / Fold change /veh ARHGAP8 /// PRR5-ARHGAP8 (11727945_x_at) / RFU KRTAP5-7 /// NADSYN1 (11734609_at) / Fold change /veh KRTAP5-7 /// NADSYN1 (11734609_at) / RFU RASL12 (11751679_a_at) / Fold change /veh RASL12 (11751679_a_at) / RFU CDKN2B (11736163_a_at) / Fold change /veh CDKN2B (11736163_a_at) / RFU PRF1 (11729649_at) / Fold change /veh PRF1 (11729649_at) / RFU, ZNF638 /// ZNF638-IT1 / Fold change vs veh, ZNF638 /// ZNF638-IT1 / RFU, PANK3 / Fold change vs veh, PANK3 / RFU, SH3YL1 / Fold change vs veh, SH3YL1 / RFU, ZEB2 / Fold change vs veh, ZEB2 / RFU, NRIP1 / Fold change vs veh, NRIP1 / RFU, PTTG1IP / Fold change vs veh, PTTG1IP / RFU, CAPN2 / Fold change vs veh, CAPN2 / RFU, MED14 / Fold change vs veh, MED14 / RFU, SNORA58 / Fold change vs veh, SNORA58 / RFU, C1orf63 / Fold change vs veh, C1orf63 / RFU, LRRFIP1 / Fold change vs veh, LRRFIP1 / RFU, NDUFAF7 / Fold change vs veh, NDUFAF7 / RFU, SLC12A2 / Fold change vs veh, SLC12A2 / RFU, IBTK / Fold change vs veh, IBTK / RFU, ESF1 / Fold change vs veh, ESF1 / Fold change vs veh, TMEM50B / RFU, TAOK1 / Fold change vs veh, TAOK1 / RFU, ACBD3 / Fold change vs veh, ACBD3 / RFU, TMA16 / Fold change vs veh, TMA16 / RFU, RWDD3 / Fold change vs veh, RWDD3 / RFU, BCAT1 / Fold change vs veh, BCAT1 / RFU, EDEM3 / Fold change vs veh, EDEM3 / RFU, TMEM33 / Fold change vs veh, TMEM33 / RFU, WDR75 / Fold change vs veh, WDR75 / RFU, AHCTF1 / Fold change vs veh, AHCTF1 / RFU, TFRC / Fold change vs veh, TFRC / RFU, ZDHHC17 / Fold change vs veh, ZDHHC17 / RFU, NOM1 / Fold change vs veh, NOM1 / RFU, ARL8B / Fold change vs veh, ARL8B / RFU, ZBTB11 / Fold change vs veh, ZBTB11 / RFU, TAMM41 / Fold change vs veh, TAMM41 / RFU, KIAA1704 /// LOC100996395 / Fold change vs veh, KIAA1704 /// LOC100996395 / RFU, ING1 / Fold change vs veh, ING1 / RFU, TRMT61B / Fold change vs veh, TRMT61B / RFU, FUBP3 / Fold change vs veh, FUBP3 / RFU, TP53 / Fold change vs veh, TP53 / RFU, TNKS2 / Fold change vs veh, TNKS2 / RFU, ZFP14 / Fold change vs veh, ZFP14 / RFU, ACTR2 / Fold change vs veh, ACTR2 / RFU, PPP3R1 / Fold change vs veh, PPP3R1 / RFU, PIK3R1 / Fold change vs veh, PIK3R1 / RFU, HNRNPA1 / Fold change vs veh, HNRNPA1 / RFU, RNF170 / Fold change vs veh, RNF170 / RFU, ZNF28 / Fold change vs veh, ZNF28 / RFU, RNGTT / Fold change vs veh, RNGTT / RFU, OGT / Fold change vs veh, OGT / RFU, BRD1 / Fold change vs veh, BRD1 / RFU, MARS / Fold change vs veh, MARS / RFU, ZNF655 / Fold change vs veh, ZNF655 / RFU, FAHD1 / Fold change vs veh, FAHD1 / RFU, BDP1 / Fold change vs veh, BDP1 / RFU, LRRCC1 / Fold change vs veh, LRRCC1 / RFU, ARID1A / Fold change vs veh, ARID1A / RFU, ZNF146 / Fold change vs veh, ZNF146 / RFU, ZNF330 / Fold change vs veh, ZNF330 / RFU, GPN3 / Fold change vs veh, GPN3 / RFU, C9orf123 / Fold change vs veh, C9orf123 / RFU, N4BP2L2 / Fold change vs veh, N4BP2L2 / RFU, ARFIP1 / Fold change vs veh, ARFIP1 / RFU, FAM179B / Fold change vs veh, FAM179B / RFU, BCL10 / Fold change vs veh, BCL10 / RFU, UHRF1BP1L / Fold change vs veh, UHRF1BP1L / RFU, BET1 / Fold change vs veh, BET1 / RFU, CNOT2 / Fold change vs veh, CNOT2 / RFU, ZNF268 / Fold change vs veh, ZNF268 / Fold change vs veh, ZNF507 / RFU, DGCR2 / Fold change vs veh, DGCR2 / RFU, WDSUB1 / Fold change vs veh, WDSUB1 / Fold change vs veh, HSP90B1 /// MIR3652 / RFU, ADSS / Fold change vs veh, ADSS / RFU, GK / Fold change vs veh, GK / RFU, ZNF148 / Fold change vs veh, ZNF148 / RFU, TAF9 / Fold change vs veh, TAF9 / RFU, SLC1A5 / Fold change vs veh, SLC1A5 / RFU, SLMO2 / Fold change vs veh, SLMO2 / RFU, ABCC4 / Fold change vs veh, ABCC4 / RFU, LOC101060439 /// RAP1B / Fold change vs veh, LOC101060439 /// RAP1B / RFU, RFX7 / Fold change vs veh, RFX7 / RFU, GTPBP10 / Fold change vs veh, GTPBP10 / RFU, CNEP1R1 / Fold change vs veh, CNEP1R1 / RFU, BIVM-ERCC5 /// ERCC5 / Fold change vs veh, BIVM-ERCC5 /// ERCC5 / RFU, ILF3 / Fold change vs veh, ILF3 / RFU 11762660_at / Fold change /veh 11762660_at / RFU VCAN (11757783_s_at) / Fold change /veh VCAN (11757783_s_at) / RFU DDX43 (11728927_at) / Fold change /veh DDX43 (11728927_at) / RFU KRT8 (11758188_x_at) / Fold change /veh KRT8 (11758188_x_at) / RFU NKD1 (11759106_at) / Fold change /veh NKD1 (11759106_at) / RFU SRD5A1 (11742802_a_at) / Fold change /veh SRD5A1 (11742802_a_at) / RFU TPSAB1 /// TPSB2 (11721975_s_at) / Fold change /veh TPSAB1 /// TPSB2 (11721975_s_at) / RFU GSTM3 (11746129_a_at) / Fold change /veh GSTM3 (11746129_a_at) / RFU IL23R (11737362_x_at) / Fold change /veh IL23R (11737362_x_at) / RFU TMEM51 (11727254_a_at) / Fold change /veh TMEM51 (11727254_a_at) / RFU PIWIL2 (11732686_x_at) / Fold change /veh PIWIL2 (11732686_x_at) / RFU ORM1 (11744905_x_at) / Fold change /veh ORM1 (11744905_x_at) / RFU CCDC152 (11743942_at) / Fold change /veh CCDC152 (11743942_at) / RFU ECM1 (11717891_a_at) / Fold change /veh ECM1 (11717891_a_at) / RFU IL23R (11748794_a_at) / Fold change /veh IL23R (11748794_a_at) / RFU TNFAIP8L3 (11732012_x_at) / Fold change /veh TNFAIP8L3 (11732012_x_at) / RFU MBOAT4 (11741988_at) / Fold change /veh MBOAT4 (11741988_at) / RFU 11764193_at / Fold change /veh 11764193_at / RFU TMEM53 (11763286_at) / Fold change /veh TMEM53 (11763286_at) / RFU MAGEB2 (11727129_at) / Fold change /veh MAGEB2 (11727129_at) / RFU TMEM200A (11744735_a_at) / Fold change /veh TMEM200A (11744735_a_at) / RFU CCDC152 (11751479_a_at) / Fold change /veh CCDC152 (11751479_a_at) / RFU FAM211A (11726209_a_at) / Fold change /veh FAM211A (11726209_a_at) / RFU RGS16 (11746705_a_at) / Fold change /veh RGS16 (11746705_a_at) / RFU VCAN (11755009_s_at) / Fold change /veh VCAN (11755009_s_at) / RFU RHOB (11743442_s_at) / Fold change /veh RHOB (11743442_s_at) / RFU RGS16 (11720943_a_at) / Fold change /veh RGS16 (11720943_a_at) / RFU RGS16 (11720944_at) / Fold change /veh RGS16 (11720944_at) / RFU, VPS4B / Fold change vs veh, VPS4B / RFU, CREB1 / Fold change vs veh, CREB1 / RFU, DNAJC13 / Fold change vs veh, DNAJC13 / RFU, GNAQ / Fold change vs veh, GNAQ / RFU, CDK5R1 / Fold change vs veh, CDK5R1 / RFU, ZRANB3 / Fold change vs veh, ZRANB3 / RFU, CUL4A / Fold change vs veh, CUL4A / RFU, CCNY / Fold change vs veh, CCNY / RFU, UFL1 / Fold change vs veh, UFL1 / RFU, COG3 / Fold change vs veh, COG3 / RFU, DIAPH2 / Fold change vs veh, DIAPH2 / RFU, SKA2 / Fold change vs veh, SKA2 / RFU, AFF3 / Fold change vs veh, AFF3 / RFU, LMF1 / Fold change vs veh, LMF1 / RFU, IPO11 / Fold change vs veh, IPO11 / RFU, DFFB / Fold change vs veh, DFFB / RFU, FOXP1 / Fold change vs veh, FOXP1 / RFU, CARD8 / Fold change vs veh, CARD8 / RFU, STRN3 / Fold change vs veh, STRN3 / RFU, ADK / Fold change vs veh, ADK / RFU, RASSF2 / Fold change vs veh, RASSF2 / RFU, WIPF1 / Fold change vs veh, WIPF1 / RFU, LARP1B / Fold change vs veh, LARP1B / RFU, RASA1 / Fold change vs veh, RASA1 / RFU, RB1 / Fold change vs veh, RB1 / RFU, PPFIA1 / Fold change vs veh, PPFIA1 / RFU, MAT2A / Fold change vs veh, MAT2A / RFU, CCT5 / Fold change vs veh, CCT5 / RFU, WDR92 / Fold change vs veh, WDR92 / RFU, CUX1 / Fold change vs veh, CUX1 / RFU, TTC7A / Fold change vs veh, TTC7A / RFU, TMEM135 / Fold change vs veh, TMEM135 / RFU, DEPTOR / Fold change vs veh, DEPTOR / RFU, CPM / Fold change vs veh, CPM / RFU, DNAJB6 / Fold change vs veh, DNAJB6 / RFU, CACNA2D3 / Fold change vs veh, CACNA2D3 / RFU, DTX4 / Fold change vs veh, DTX4 / RFU, TFCP2 / Fold change vs veh, TFCP2 / RFU, GMCL1 /// GMCL1P1 / Fold change vs veh, GMCL1 /// GMCL1P1 / RFU, AEBP2 / Fold change vs veh, AEBP2 / RFU, SNHG1 /// SNORD22 /// SNORD25 /// SNORD26 /// SNORD27 /// SNORD28 /// SNORD29 /// SNORD31 / Fold change vs veh, SNHG1 /// SNORD22 /// SNORD25 /// SNORD26 /// SNORD27 /// SNORD28 /// SNORD29 /// SNORD31 / Fold change (Aza/veh), C12orf56 (ProbeSet 11735607_a_at) / Fold change (ACY-1035/veh), C12orf56 (ProbeSet 11735607_a_at) / Fold change (Aza/veh), FGFR1OP (ProbeSet 11751329_s_at) / Fold change (ACY-1035/veh), FGFR1OP (ProbeSet 11751329_s_at) / Fold change (Aza/veh), VPS36 (ProbeSet 11739960_a_at) / Fold change (ACY-1035/veh), VPS36 (ProbeSet 11739960_a_at) / RFU SYPL1 (11715823_x_at) / Fold change /veh SYPL1 (11715823_x_at) / RFU IGFBP7 (11715501_s_at) / Fold change /veh IGFBP7 (11715501_s_at) / RFU REEP3 (11722064_at) / Fold change /veh REEP3 (11722064_at) / RFU IGLL1 (11728026_x_at) / Fold change /veh IGLL1 (11728026_x_at): dose or concentration left out as unconfirmed.

On to `Nc1ncn([C@@H]2O[C@H](CO)[C@@H](O)[C@H]2O)c(=O)n1` [azacitidine], for which the “Fold change vs veh, UFL1” value is given as 0.83.
